Experimental data published in US9790221B2, “Heteroaryl compounds as IRAK inhibitors and uses thereof” (Merck Patent GmbH, priority 2014, dated 2017).
Where a name gives a salt, the structure may show the parent alone.

What was measured:
[1] = biological target: IRAK1 (His-TEV-IRAK1 (194-712)) (Homo sapiens (Human), UniProt P51617); assay: IRAK1 enzymatic assay; format: biochemical
Summary of the method: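 Recombinant His-TEV-IRAK1 (194-712), 15 ng/well, autophosphorylation with 1 μM ATP plus [33P]ATP, 3 h at 30° C in Hepes pH 7.0 buffer with MgCl2, DTT, EGTA, BSA and Triton; compounds from 20 µM to 1 nM. The reaction was stopped with EDTA, and radioactivity was counted in streptavidin FlashPlates.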

IRAK4 = IRAK4 (Homo sapiens (Human), UniProt Q9NWZ3); assay: IRAK4 enzymatic assay; format: biochemical
Summary of the method: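 Recombinant His-TEV-IRAK4 (20 ng/well) phosphorylating biotinylated STK1 peptide (300 nM) with 2 μM ATP plus [^33P]ATP, 3 h at 30° C in pH 7.0 Hepes buffer with Mg2+ and Mn2+. Compounds 20 µM to 1 nM; EDTA stop, radioactivity captured on streptavidin FlashPlates.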

[2] = system: TLR7 induced IL-6 secretion in human mononuclear cells (PBMC's); assay: TLR7 induced IL-6 in human PBMC's; format: cell-based; conditions: Homo sapiens, PBMC, read-out: TLR7 induced IL-6 secretion in hPBMC's (IC50)
Method: TLR7 Induced IL-6 in Human PBMC's
Human PBMC assay was used as one of the functional assay a to monitor the activity of IRAK1 and IRAK4 small molecule inhibitors on TLR7 induced IL-6 secretion in human mononuclear cells (PBMC's). Human PBMCs were prepared from buffy coats (whole blood enriched with leukocytes and platelets) obtained from healthy volunteers used either fresh or frozen are plated in assay media (RPMI+2% P/S/L-glu+10% HI-FBS) and pre-treated with compounds in DMSO/media (range of concentrations from 25 uM to 0.4 nM) or controls (0.25% DMSO) for 30 minutes at 37° C. in assay media. Following pre-treatment with IRAK1 and IRAK4 inhibitors, PBMC's were stimulated with TLR7 specific ligand (2 uM) overnight (16-18 hrs) at 37° C. After incubation supernatant was transferred to 384 well PE AlphaPlate-384 (6005350) and IL-6 is quantified using Perkin Elmer IL-6 Alpha LISA kit (AL223C). Plates were read on an Envision® plate reader with Alpha Technology®.

IRAK4, sequence (Q9NWZ3 whole entry): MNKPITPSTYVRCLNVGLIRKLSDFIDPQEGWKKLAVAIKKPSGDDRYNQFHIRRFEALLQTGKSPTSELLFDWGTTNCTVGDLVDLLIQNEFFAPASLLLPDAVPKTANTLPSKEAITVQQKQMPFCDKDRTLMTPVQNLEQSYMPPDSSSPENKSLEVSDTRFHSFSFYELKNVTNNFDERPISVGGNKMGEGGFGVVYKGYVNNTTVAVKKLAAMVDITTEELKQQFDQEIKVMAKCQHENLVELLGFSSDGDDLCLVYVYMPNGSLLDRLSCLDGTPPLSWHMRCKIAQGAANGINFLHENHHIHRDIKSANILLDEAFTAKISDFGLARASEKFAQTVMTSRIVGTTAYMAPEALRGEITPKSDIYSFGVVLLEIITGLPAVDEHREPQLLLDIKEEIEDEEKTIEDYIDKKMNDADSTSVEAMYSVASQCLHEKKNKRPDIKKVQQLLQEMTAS
IRAK1 (His-TEV-IRAK1 (194-712)), sequence (P51617 194-712): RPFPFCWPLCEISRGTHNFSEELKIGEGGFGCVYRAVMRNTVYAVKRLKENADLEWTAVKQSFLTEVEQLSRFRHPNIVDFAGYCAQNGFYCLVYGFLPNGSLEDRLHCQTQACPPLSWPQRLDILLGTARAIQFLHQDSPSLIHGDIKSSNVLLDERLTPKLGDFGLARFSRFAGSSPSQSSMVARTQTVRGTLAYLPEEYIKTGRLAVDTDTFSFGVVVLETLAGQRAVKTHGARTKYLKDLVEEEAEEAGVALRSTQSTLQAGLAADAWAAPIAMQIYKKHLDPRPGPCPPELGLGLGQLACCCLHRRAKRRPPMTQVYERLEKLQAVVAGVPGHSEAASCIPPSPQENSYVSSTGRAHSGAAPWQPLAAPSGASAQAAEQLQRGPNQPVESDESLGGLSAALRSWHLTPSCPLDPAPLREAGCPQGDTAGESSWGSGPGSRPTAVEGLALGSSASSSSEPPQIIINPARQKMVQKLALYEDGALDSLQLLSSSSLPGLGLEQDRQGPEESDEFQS

| SMILES | IC50 [1] [nM] | IC50 (IRAK4) [nM] | IC50 [2] [nM] |
| --- | --- | --- | --- |
| Cn1cc(-c2cccc(-c3ncc(-c4cnn(C)c4)c(NC4CCCC4)n3)c2)cn1 [Example 32] | 100 to 1000 | < 100 | 1000 to 5000 |
| Cn1cc(-c2cccc(-c3ncc(-c4cnn(C)c4)c(NCCCO)n3)c2)cn1 [Example 35] | 100 to 1000 | 100 to 1000 | 1000 to 5000 |
| Cn1cc(-c2cccc(-c3ncc(-c4cnn(C)c4)c(NCCN4CCOCC4)n3)c2)cn1 [Example 36] | 1000 to 5000 | 100 to 1000 | 100 to 1000 |
| Cn1cc(-c2cccc(-c3ncc(-c4cnn(C)c4)c(NCc4ccncc4)n3)c2)cn1 [Example 37] | 1000 to 5000 | 100 to 1000 | 1000 to 5000 |
| Cn1cc(-c2cccc(-c3ncc(-c4cnn(C)c4)c(NCCN4CCOC4=O)n3)c2)cn1 [Example 38] | 1000 to 5000 | 100 to 1000 | > 5000 |
| Cn1cc(-c2cccc(-c3ncc(-c4cnn(C)c4)c(NC4CCOC4)n3)c2)cn1 (stereo not drawn) [Example 41] | 100 to 1000 | 100 to 1000 | 1000 to 5000 |
| Cn1cc(-c2cccc(-c3ncc(-c4cnn(C)c4)c(NCC4CC(F)(F)C4)n3)c2)cn1 [Example 42] | 100 to 1000 | 100 to 1000 | 100 to 1000 |
| Cn1cc(-c2cccc(-c3ncc(-c4cnn(C)c4)c(NCC4(C)CCC4)n3)c2)cn1 [Example 43] | 100 to 1000 | 100 to 1000 | 1000 to 5000 |
| Cn1cc(-c2cccc(-c3ncc(-c4cnn(C)c4)c(N[C@H]4CC[C@@H](N)CC4)n3)c2)cn1 [Example 44] | 100 to 1000 | < 100 | 100 to 1000 |
| CN(CC1(F)COC1)c1nc(-c2cccc(-c3cnn(C)c3)c2)ncc1-c1cnn(C)c1 [Example 45] | 1000 to 5000 | 100 to 1000 | 1000 to 5000 |
| Cn1cc(-c2cccc(-c3ncc(-c4cnn(C)c4)c(N[C@H]4C[C@@H](O)C4)n3)c2)cn1 [Example 46] | 100 to 1000 | 100 to 1000 | > 5000 |
| Cn1cc(-c2cccc(-c3ncc(-c4cnn(C)c4)c(N[C@H]4C[C@H](O)C4)n3)c2)cn1 [Example 47] | 1000 to 5000 | 100 to 1000 | > 5000 |
| Cn1cc(-c2cccc(-c3ncc(-c4cnn(C)c4)c(NC4CC(F)(F)C4)n3)c2)cn1 [Example 48] | 100 to 1000 | 100 to 1000 | > 5000 |
| Cn1cc(-c2cccc(-c3ncc(-c4cnn(C)c4)c(N[C@H]4C[C@@H](S(C)(=O)=O)C4)n3)c2)cn1 [Example 49] | 100 to 1000 | 100 to 1000 | > 5000 |
| Cn1cc(-c2cccc(-c3ncc(-c4cnn(C)c4)c(NC4CC(F)C4)n3)c2)cn1 (stereo not drawn) [Example 50] | 100 to 1000 | 100 to 1000 | 1000 to 5000 |
| Cn1cc(-c2cccc(-c3ncc(-c4cnn(C)c4)c(NCC4(O)COC4)n3)c2)cn1 [Example 52] | 100 to 1000 | < 100 | 1000 to 5000 |
| Cn1cc(-c2cccc(-c3ncc(-c4cnn(C)c4)c(NCC4(CO)CCC4)n3)c2)cn1 [Example 53] | 100 to 1000 | < 100 | 1000 to 5000 |
| Cn1cc(-c2cccc(-c3ncc(-c4cnn(C)c4)c(NC[C@H](O)CO)n3)c2)cn1 [Example 54] | 100 to 1000 | 100 to 1000 | 1000 to 5000 |
| Cn1cc(-c2cccc(-c3ncc(-c4cnn(C)c4)c(NCCN4CCS(=O)(=O)CC4)n3)c2)cn1 [Example 55] | 100 to 1000 | < 100 | 1000 to 5000 |
| Cn1cc(-c2cccc(-c3ncc(-c4cnn(C)c4)c(NC[C@@H](O)CO)n3)c2)cn1 [Example 56] | > 5000 | < 100 | 1000 to 5000 |
| CC(=O)NCCNc1nc(-c2cccc(-c3cnn(C)c3)c2)ncc1-c1cnn(C)c1 [Example 57] | 100 to 1000 | 100 to 1000 | > 5000 |
| Cn1cc(-c2cccc(-c3ncc(-c4cnn(C)c4)c(N[C@H]4CCC(=O)NC4)n3)c2)cn1 [Example 60] | 1000 to 5000 | 100 to 1000 | 1000 to 5000 |
| Cn1cc(-c2cccc(-c3ncc(-c4cnn(C)c4)c(N[C@H]4C[C@@H](N)C4)n3)c2)cn1 [Example 62] | 1000 to 5000 | 100 to 1000 | 1000 to 5000 |

| SMILES | IC50 [1] [nM] | IC50 (IRAK4) [nM] | IC50 [2] [nM] |
| --- | --- | --- | --- |
| Cn1cc(-c2cccc(-c3ncc(-c4cnn(C)c4)c(NCC4COC4)n3)c2)cn1 [Example 63] | 100 to 1000 | < 100 | 1000 to 5000 |
| Cn1cc(-c2cccc(-c3ncc(-c4cnn(C)c4)c(NC4CC5(CC(N)C5)C4)n3)c2)cn1 (stereo not drawn) [Example 65] | 100 to 1000 | < 100 | 100 to 1000 |
| Cn1cc(-c2cccc(-c3ncc(-c4cnn(C)c4)c(NC45CCC(N)(C4)C5)n3)c2)cn1 [Example 66] | < 100 | < 100 | 100 to 1000 |
| Cn1cc(-c2cccc(-c3ncc(-c4cnn(C)c4)c(NCC4CCNC(=O)C4)n3)c2)cn1 (stereo not drawn) [Example 76] | 1000 to 5000 | 100 to 1000 | > 5000 |
| Cn1cc(-c2cccc(-c3ncc(-c4cnn(C)c4)c(NCC4[C@H]5CNC[C@@H]45)n3)c2)cn1 (stereo partly drawn) [Example 77] | > 5000 | 100 to 1000 | 1000 to 5000 |
| Cn1cc(-c2cccc(-c3ncc(-c4ccn(C)n4)c(NCC4CC(F)(F)C4)n3)c2)cn1 [Example 81] | 1000 to 5000 | 100 to 1000 | > 5000 |
| Cn1cc(-c2cccc(-c3ncc(-c4ccn(C)n4)c(NC[C@@H](O)CO)n3)c2)cn1 [Example 83] | 1000 to 5000 | 100 to 1000 | 100 to 1000 |
| Cn1cc(-c2cccc(-c3ncc(-c4ccn(C)n4)c(NCCN4CCS(=O)(=O)CC4)n3)c2)cn1 [Example 84] | 1000 to 5000 | 100 to 1000 | > 5000 |
| Cn1cc(-c2cccc(-c3ncc(-c4cnn(C)c4)c(NCCC4CCNC4)n3)c2)cn1 (stereo not drawn) [Example 85] | > 5000 | 100 to 1000 | 1000 to 5000 |
| Cn1cc(-c2cccc(-c3ncc(-c4cnn([C@H]5CC[C@]6(CCC(=O)N6C)CC5)c4)c(NCC4CCNCC4)n3)c2)cn1 [Example 86, 1-Methyl-8-(4-{2-[3-(1-methyl-1H-pyrazol-4-yl)-phenyl]-4-[(piperidin-4-ylmethyl)-amino]-pyrimidin-5-yl}-pyrazol-1-yl)-1-aza-spiro[4.5]decan-2-one Hydrochloride] | 1000 to 5000 | < 100 | > 5000 |
| CN1CCC(CNc2nc(-c3cccc(-c4cnn(C)c4)c3)ncc2-c2cnn([C@H]3CC[C@]4(CCC(=O)N4C)CC3)c2)CC1 [Example 87, 1-Methyl-8-(4-{4-[(1-methyl-piperidin-4-ylmethyl)-amino]-2-[3-(1-methyl-1H-pyrazol-4-yl)-phenyl]-pyrimidin-5-yl}-pyrazol-1-yl)-1-aza-spiro[4.5]decan-2-one] | 1000 to 5000 | < 100 | 1000 to 5000 |
| Cn1cc(-c2cccc(-c3ncc(-c4ccn(C)n4)c(NC4(CO)COC4)n3)c2)cn1 [Example 93] | 100 to 1000 | < 100 | 100 to 1000 |
| Cn1cc(-c2cccc(-c3ncc(-c4ccn(C)n4)c(NCCCCO)n3)c2)cn1 [Example 97] | 100 to 1000 | < 100 | 1000 to 5000 |
| Cn1cc(-c2cccc(-c3ncc(-c4ccn(C)n4)c(NC4CC(CN)(CCl)C4)n3)c2)cn1 (stereo not drawn) [Example 99] | 100 to 1000 | < 100 | 100 to 1000 |
| Cn1cc(-c2cccc(-c3ncc(-c4cnn(C)c4)c(NCCCCO)n3)c2)cn1 [Example 101] | 1000 to 5000 | < 100 | 100 to 1000 |
| Cn1cc(-c2cccc(-c3ncc(-c4cnn(C)c4)c(NCC4(O)CCNCC4(C)C)n3)c2)cn1 (stereo not drawn) [Example 112] | 1000 to 5000 | 100 to 1000 | 1000 to 5000 |
| Cn1cc(-c2cccc(-c3ncc(-c4ccn(C)n4)c(NCC4CNCCO4)n3)c2)cn1 (stereo not drawn) [Example 115] | > 5000 | 100 to 1000 | 100 to 1000 |
| Cn1cc(-c2cccc(-c3ncc(-c4cnn(C)c4)c(OCC4CCCO4)n3)c2)cn1 (stereo not drawn) [Example 118] | 1000 to 5000 | < 100 | 1000 to 5000 |
| Cn1cc(-c2cccc(-c3ncc(-c4ccn(C)n4)c(NC4CCOC4)n3)c2)cn1 (stereo not drawn) [Example 119] | 1000 to 5000 | 100 to 1000 | > 5000 |
| Cn1cc(-c2cccc(-c3ncc(-c4cnn(C)c4)c(NCC4CCCC(O)C4)n3)c2)cn1 (stereo not drawn) [Example 123] | 100 to 1000 | < 100 | 100 to 1000 |
| Cn1cc(-c2cccc(-c3ncc(-c4ccn(C)n4)c(NC4CCCCNC4)n3)c2)cn1 (stereo not drawn) [Example 125] | > 5000 | 100 to 1000 | 100 to 1000 |
| Cc1nnc(-c2cnc(-c3cccc(-c4cnn(C)c4)c3)nc2NCCN2CCS(=O)(=O)CC2)s1 [Example 127] | > 5000 | < 100 | 100 to 1000 |
